Test results as given in patent US5710174A, “Factor XIIIA inhibitor” (Zymo Genetics, Inc., priority 1995, dated 1998).
Like-named read-outs stand apart in the source and are kept apart here.

Assays:
[1] = molecular target: T1, papain (Carica papaya, UniProt P00784); assay: Papain inhibition assay; format: biochemical; settings: for Papain inhibition (result in words, IC50 table): 100 μM to 10 nM, 30 min at 37° C.
T1 construct: purchased Boehringer Mannheim
T1 sequence (P00784 134-345): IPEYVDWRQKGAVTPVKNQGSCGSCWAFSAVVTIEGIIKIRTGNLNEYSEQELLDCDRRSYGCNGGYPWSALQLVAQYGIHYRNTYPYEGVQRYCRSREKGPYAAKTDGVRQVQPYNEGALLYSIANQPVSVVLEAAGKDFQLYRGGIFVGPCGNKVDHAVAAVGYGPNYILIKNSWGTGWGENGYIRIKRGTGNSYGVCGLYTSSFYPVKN
Experimental: For the papain inhibition assay, a buffer containing 0.1M NaPO4 and 2.5 mM EDTA at about pH 7.0 was used. An Azocoll™ solution was prepared by adding 5 mg Azocoll™ (Calbiochem; an insoluble, powdered cowhide to which a bright red dye is attached (azo-dye-bound collagen)) to the buffer while stirring. The Azocoll was prewarmed to about 37° C. 10 μl of 0.1M L-cysteine, 10 μl of 50 μg/ml papain (Boehringer Mannheim), 0.5 ml of Azocoll solution, and 50 μl of one of a series of concentrations of ZG-1400a, iodoacetamide, iodoacetic acid, cerulenin, or 50 μl of the DMSO or ethanol negative controls were added to duplicate 13×75 mm glass tubes. The ZG-1400a, iodoacetamide, and iodoacetic acid were individually prepared in 10% DMSO and tested using half-log dilutions, starting at a final assay concentration of 100 μM and diluting to 10 nM. Cerulenin was prepared in 10% ethanol and tested using half-log dilutions, starting at a final assay concentration of 100 μM and diluting to 10 nM. A negative (no inhibition) control for ZG-1400a, iodoacetamide and iodoacetic acid was 50 μl of 10% DMSO to give a final assay concentration of 1% DMSO in each control tube. A negative control for cerulenin was 50 μl of 10% ethanol to give a final assay concentration of 1% ethanol in each control tube. The test and control tubes then were incubated for 30 min at 37° C. in an agitated water bath.
After incubation, all of the tubes were centrifuged at 2000 RPM for 5 min. The supernatant was removed and its absorbance was read at 520 nm on a Beckman DU640 spectrophotometer to determine the amount of papain inhibition.

[2] = molecular target: T2, FXIIIa (Homo sapiens, UniProt P00488); assay: Primary FXIIIa screening assay (cross-linking of biotinylated fibrinogen and immobilized fibronectin); format: biochemical
T2 sequence (P00488 39-732 limits assumed): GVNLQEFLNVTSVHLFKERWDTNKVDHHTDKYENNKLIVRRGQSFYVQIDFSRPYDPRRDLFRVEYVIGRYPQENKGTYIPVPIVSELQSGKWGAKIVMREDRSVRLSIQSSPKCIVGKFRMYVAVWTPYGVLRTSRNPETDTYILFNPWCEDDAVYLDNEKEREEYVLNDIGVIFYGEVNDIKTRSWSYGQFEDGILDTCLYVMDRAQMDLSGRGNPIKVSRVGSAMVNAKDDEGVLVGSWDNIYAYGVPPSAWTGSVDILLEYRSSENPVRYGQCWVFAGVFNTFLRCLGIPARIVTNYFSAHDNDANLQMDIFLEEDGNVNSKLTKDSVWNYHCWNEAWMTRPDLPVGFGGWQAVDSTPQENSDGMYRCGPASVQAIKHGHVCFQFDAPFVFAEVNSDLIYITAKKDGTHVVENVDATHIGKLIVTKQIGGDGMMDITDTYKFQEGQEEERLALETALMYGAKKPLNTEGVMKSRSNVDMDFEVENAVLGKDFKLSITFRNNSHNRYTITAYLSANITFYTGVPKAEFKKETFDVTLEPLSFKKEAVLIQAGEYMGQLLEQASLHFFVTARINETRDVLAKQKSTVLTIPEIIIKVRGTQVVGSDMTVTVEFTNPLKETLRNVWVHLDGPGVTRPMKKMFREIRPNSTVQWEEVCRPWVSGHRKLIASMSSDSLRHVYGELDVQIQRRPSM
Experimental: The primary FXIIIa screening assay used a 96-well high throughput assay format. This assay assesses test sample inhibition of FXIIIa catalyzed cross-linking of biotinylated fibrinogen and immobilized fibronectin.
Test samples (possibly containing FXIIIa inhibitors) were added to 96-well plates coated with fibronectin, followed by the addition of FXIIIa, as described in the primary FXIIIa screening assay, below. Biotinylated fibrinogen was added to the wells, and streptavidin-alkaline phosphatase was used to detect biotinylated fibrinogen that had been cross-linked to fibronectin.
Purified fibronectin was diluted to 1 μg/ml in 0.1M Na2 CO3, pH 9.7, and added to control and test assay wells of 96-well plates at 100 μl/well. All wells were incubated overnight at 4° C.
After incubation, the plate wells were washed twice with 200 μl/well of wash buffer per wash to remove all fibronectin not bound to the wells. The wash buffer contained 0.135M NaCl, 2.7 mM KCl, 25 mM Tris at about pH 7.4, and 0.1% Tween 20® (Sigma Chemical Co., St. Louis, Mo.; polyoxyethylenesorbitan monolaurate). The plate wells were then blocked with 200 μl/well blocking buffer and incubated for 1-2 h at 37° C. The blocking buffer contained 0.135M NaCl, 2.7 mM KCl, 25 mM Tris at about pH 7.4, 0.1% Tween 20®, and 0.5% BSA (bovine serum albumin, Sigma fraction V; Sigma). After incubation, the plates wells were again washed with 200 μl/well of wash buffer to remove excess blocking buffer.
Briefly, fibrinogen was dialyzed against 0.1M NaHCO3, pH 8.5 (coupling buffer) at a concentration of 1 mg/ml. BNHS was dissolved in dimethylformamide at a concentration of 1.7 mg/ml, and added to fibrinogen in coupling buffer at a ratio of 30 μl BNHS to 1 ml fibrinogen. The mixture was incubated with rocking for 4 h at room temperature, dialyzed against PBS, and stored in aliquots at -80° C.
Biotinylated fibrinogen (40 μl of 20 μg/ml solution) was added to each plate well. Except in control wells (which received 10 μl of 10% DMSO alone), 10 μl of each of the 11,198 crude extracts in 10% DMSO were added to duplicate wells after the addition of biotinylated fibrinogen, resulting in a 1% final assay concentration of DMSO.
FXIIIa (recombinant human FXIIIa2 (ZymoGenetics), as described in European Patent No. 0 268 772, granted Apr. 26, 1995, and incorporated herein by reference) was diluted to 100 μg/ml in a solution of 50 mM Tris, 5 mM CaCl2 at pH 7.4 containing 1 unit/ml thrombin (bovine; Enzyme Research Labs) and incubated for 20 min at 37° C. FXIIIa then was diluted to 1 μg/ml in a cross-linking buffer consisting of the blocking buffer described above plus 20 mM CaCl2 and 75 ng/ml D-phenylalanyl-L-prolyl-L-arginine chloromethyl ketone (PPACK; Calbiochem, La Jolla, Calif.). Fifty microliters of FXIIIa in cross-linking buffer was added to each test and control well. All wells then were incubated for about 10 min at 37° C.
After incubation, the wells were washed twice with 200 μl/well of wash buffer to remove all biotinylated fibrinogen that was not cross-linked to fibronectin.

[3] = purified compound, read-out: IC50 FXIIIa Primary Screen

SMILES	IC50 [1]	Papain inhibition (result in words, IC50 table) [1]	IC50 [2]	Papain inhibition (result in words, IC50 table) ([1]; listed as cerulenin)	IC50 [2, 3]	Papain inhibition (result in words, IC50 table) ([1]; listed as ZG-1400a)	Papain inhibition (result in words, IC50 table) ([1]; listed as ZG-1440)	inhibition of FXIIIa ([2]; 0.01X concentration)
NC(=O)CI [Iodoacetamide, iodoacetamide]	0.01 µM	did cause inhibition	320 µM	–	–	–	–	–
CC=CCC=CCCC(=O)C1OC1C(N)=O (stereo not shown) [Cerulenin, 2,3-epoxy-4-oxo-7,10-dodecadienamide]	–	No inhibition	–	did not inhibit papain activity	29 µM	–	–	–
C[C@@H]1CCC/C=C\C(=O)Cc2cc(O)cc(O)c2C(=O)O1 [ZG-1400, R(-) enantiomer of cis-resorcylide]	–	–	–	–	5.7 µM	did not inhibit papain activity	No inhibition	about 65%
